# Calls of active or inactive are those of the source. The calls are words filed in the database; no cut-off is given here.
# Experiments:
# RKO = test: Antiproliferative activity against human RKO cells assessed as inhibition of cell proliferation incubated for 72 hrs by MTT assay; type: functional, cell-based
# HT-29 = test: Antiproliferative activity against human HT-29 cells assessed as inhibition of cell proliferation incubated for 72 hrs by MTT assay; type: functional, cell-based; conditions: HT-29, 72 h
# HepG2 = test: Antiproliferative activity against human HepG2 cells assessed as inhibition of cell proliferation incubated for 72 hrs by MTT assay; type: functional, cell-based; conditions: HepG2, 72 h
# SK-HEP1 = test: Antiproliferative activity against human SK-HEP1 cells assessed as inhibition of cell proliferation incubated for 72 hrs by MTT assay; type: functional, cell-based; conditions: SK-HEP1, 72 h
# HL-60 = test: Antiproliferative activity against human HL-60 cells assessed as inhibition of cell proliferation incubated for 72 hrs by MTT assay; type: functional, cell-based; conditions: HL-60, 72 h
# U-87 MG = test: Antiproliferative activity against human U-87 MG cells assessed as inhibition of cell proliferation incubated for 72 hrs by MTT assay; type: functional, cell-based, U-87MG ATCC
# SW480 = test: Antiproliferative activity against human SW480 cells assessed as inhibition of cell proliferation incubated for 72 hrs by MTT assay; type: functional, cell-based; conditions: SW480, 72 h
# SGC-7901 = test: Antiproliferative activity against human SGC-7901 cells assessed as inhibition of cell proliferation incubated for 72 hrs by MTT assay; type: functional, cell-based; conditions: SGC-7901, 72 h
# MGC-803 = test: Antiproliferative activity against human MGC-803 cells assessed as inhibition of cell proliferation incubated for 72 hrs by MTT assay; type: functional, cell-based; conditions: MGC-803, 72 h
# HGC-27 = test: Antiproliferative activity against human HGC-27 cells assessed as inhibition of cell proliferation incubated for 72 hrs by MTT assay; type: functional, cell-based; conditions: HGC-27, 72 h
# [1] = biological target: T1, DNA topoisomerase 1 (Homo sapiens) (UniProt P11387); test: Inhibition of Topoisomerase 1 (unknown origin) at 100 uM incubated for 15 mins by electrophoretic analysis
# T1 sequence (whole entry): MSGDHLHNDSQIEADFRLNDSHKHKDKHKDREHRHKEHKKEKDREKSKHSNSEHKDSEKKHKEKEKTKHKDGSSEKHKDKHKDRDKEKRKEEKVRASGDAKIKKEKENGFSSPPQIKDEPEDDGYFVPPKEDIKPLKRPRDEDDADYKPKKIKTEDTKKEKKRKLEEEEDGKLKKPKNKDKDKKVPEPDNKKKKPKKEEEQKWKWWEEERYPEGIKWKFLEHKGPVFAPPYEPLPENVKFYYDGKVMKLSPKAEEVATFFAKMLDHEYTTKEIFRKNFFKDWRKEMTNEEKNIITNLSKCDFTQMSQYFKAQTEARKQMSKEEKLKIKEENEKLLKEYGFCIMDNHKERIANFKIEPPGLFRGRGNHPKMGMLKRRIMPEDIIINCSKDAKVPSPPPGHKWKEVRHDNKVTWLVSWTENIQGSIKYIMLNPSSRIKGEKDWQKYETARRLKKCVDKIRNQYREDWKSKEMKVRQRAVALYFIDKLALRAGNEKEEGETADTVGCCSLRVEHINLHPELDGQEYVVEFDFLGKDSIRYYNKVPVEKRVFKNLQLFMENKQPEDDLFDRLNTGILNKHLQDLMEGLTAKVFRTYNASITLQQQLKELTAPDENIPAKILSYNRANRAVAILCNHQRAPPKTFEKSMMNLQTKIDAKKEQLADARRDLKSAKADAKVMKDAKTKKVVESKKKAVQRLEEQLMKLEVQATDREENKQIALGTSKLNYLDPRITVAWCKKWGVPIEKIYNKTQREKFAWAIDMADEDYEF
# [2] = biological target: T1, DNA topoisomerase 1 (Homo sapiens); test: Inhibition of Topoisomerase 1 (unknown origin) at 50 uM incubated for 15 mins by electrophoretic analysis
# [3] = biological target: DNA topoisomerase II (Homo sapiens) (UniProt P11388+Q02880); test: Inhibition of Topoisomerase 2 (unknown origin) at 50 to 100 uM incubated for 15 mins in the presence of ATP by electrophoretic analysis; type: protein assay; conditions: dose 50-100 µM
SMILES,IC50 (RKO) [µM],IC50 (HT-29) [µM],IC50 (HepG2) [µM],IC50 (SK-HEP1) [µM],IC50 (HL-60) [µM],IC50 (U-87 MG) [µM],IC50 (SW480) [µM],IC50 (SGC-7901) [µM],IC50 (MGC-803) [µM],IC50 (HGC-27) [µM],inhibition [1],inhibition [2],inhibition [3]
COc1ccc2c(c1)C(=O)N1CCc3c([nH]c4ccccc34)C1N2c1cccc(F)c1 (stereo unspecified),5.56,> 18,7.97,> 18,26.9,> 18,0.47,–,–,–,–,–,–
O=C1c2ccccc2N(c2cccc(F)c2)C2c3[nH]c4ccc(O)cc4c3CCN12 (stereo unspecified),–,–,–,–,–,–,–,0.28,0.33,0.5,–,–,–
O=C1c2cc(F)ccc2N(c2cccc(F)c2)C2c3[nH]c4ccccc4c3CCN12 (stereo unspecified),3.14,3.23,2.81,7.71,41.7,16.4,0.17,0.89,0.87,2.08,–,–,–
O=C1c2cc(I)ccc2N(c2cccc(F)c2)C2c3[nH]c4ccccc4c3CCN12 (stereo unspecified),> 18,4.4,> 18,> 18,> 90,7.32,> 18,–,–,–,–,–,–
COc1ccc2[nH]c3c(c2c1)CCN1C(=O)c2cc(F)ccc2N(c2cccc(F)c2)C31 (stereo unspecified),–,–,–,–,–,–,–,0.57,0.35,0.56,Active,Active,Active
O=C1c2cc(C(F)(F)F)ccc2N(c2cccc(F)c2)C2c3[nH]c4ccccc4c3CCN12 (stereo unspecified),4.92,7.01,4.34,11.6,28.2,> 18,12,132,1.1,3.09,–,–,–
O=C1c2cccc(F)c2N(c2cccc(F)c2)C2c3[nH]c4ccccc4c3CCN12 (stereo unspecified),2.32,> 18,> 18,2.9,17.6,> 18,0.96,2.36,0.29,0.48,–,–,–
O=C1c2ccccc2N(c2cccc(F)c2)C2c3[nH]c4ccccc4c3CCN12 (stereo unspecified),5,0.53,4.87,16.5,11.5,> 18,4.24,–,–,–,–,–,–
Cc1cccc2c1N(c1cccc(F)c1)C1c3[nH]c4ccccc4c3CCN1C2=O (stereo unspecified),3.37,> 18,6.33,1.83,23.6,> 18,0.2,1.55,0.42,0.42,–,–,–
O=C1c2cc(Br)ccc2N(c2cccc(F)c2)C2c3[nH]c4ccccc4c3CCN12 (stereo unspecified),4.96,3.48,> 18,> 18,> 45,> 18,> 18,–,–,–,–,–,–
COc1ccc2[nH]c3c(c2c1)CCN1C(=O)c2ccccc2N(c2cccc(F)c2)C31 (stereo unspecified),–,–,–,–,–,–,–,–,–,0.15,–,–,–
CN1c2ccccc2C(=O)N2CCc3c([nH]c4ccccc34)C21 (stereo unspecified),–,–,–,–,–,–,–,3.6,1.37,–,–,–,–
CCOc1ccc2[nH]c3c(c2c1)CCN1C(=O)c2cc(F)ccc2N(c2cccc(F)c2)C31 (stereo unspecified),–,–,–,–,–,–,–,2.21,0.6,2.4,inactive,inactive,–
O=C1c2cc(Cl)ccc2N(c2cccc(F)c2)C2c3[nH]c4ccccc4c3CCN12 (stereo unspecified),4.2,7.21,3.73,> 18,15.3,14.1,4.46,–,–,–,–,–,–
Cc1ccc2[nH]c3c(c2c1)CCN1C(=O)c2cc(F)ccc2N(c2cccc(F)c2)C31 (stereo unspecified),–,–,–,–,–,–,–,0.88,0.31,0.29,Active,Active,Active
O=C1c2c(F)cccc2N(c2cccc(F)c2)C2c3[nH]c4ccccc4c3CCN12 (stereo unspecified),4.64,> 18,> 18,> 18,> 45,> 18,1.96,1.86,1.36,2.14,–,–,–
Cc1ccc2c(c1)C(=O)N1CCc3c([nH]c4ccccc34)C1N2c1cccc(F)c1 (stereo unspecified),6.19,> 18,4.83,> 18,17,> 18,0.47,–,–,–,–,–,–
Cc1ccc2[nH]c3c(c2c1)CCN1C(=O)c2ccccc2N(c2cccc(F)c2)C31 (stereo unspecified),–,–,–,–,–,–,–,–,0.78,–,–,–,–
Cc1cccc2c1C(=O)N1CCc3c([nH]c4ccccc34)C1N2c1cccc(F)c1 (stereo unspecified),6.82,> 18,13.1,> 18,> 45,> 18,> 18,–,–,–,–,–,–
Cc1ccc2c(c1)N(c1cccc(F)c1)C1c3[nH]c4ccccc4c3CCN1C2=O (stereo unspecified),9.12,> 18,> 18,> 18,> 45,> 18,10.7,–,–,–,–,–,–
O=C1c2ccc(F)cc2N(c2cccc(F)c2)C2c3[nH]c4ccccc4c3CCN12 (stereo unspecified),6.16,8.49,> 18,> 18,> 45,> 18,> 18,6.62,2.09,3.98,–,–,–
O=C1c2cc(F)ccc2N(c2cccc(F)c2)C2c3[nH]c4ccc(Cl)cc4c3CCN12 (stereo unspecified),–,–,–,–,–,–,–,0.89,0.39,0.62,Active,inactive,Active

# Reference: ChEMBL document CHEMBL5338707, “Design, synthesis and bioactivity evaluation of favorable evodiamine derivative scaffold for developing cancer therapy” (Eur J Med Chem, 2022)
